Values joined by “and” are separate entries in the source; they are usually repeats but may differ in a detail not shown here. Equal values may be shown once. “Also recorded” adds a separate entry of the source. Read-outs that look alike come from different tables or passages of the source.
How the values were obtained:
S. mutans [1] = type: cell-based, Streptococcus mutans
S. mutans UA159 = assay: In vitro static biofilm inhibition assay (crystal violet), incl. dose response study; type: cell-based, Streptococcus mutans
S. sobrinus 6715 = assay: In vitro static biofilm inhibition assay (crystal violet); type: cell-based, Streptococcus sobrinus; details: 125 μM; for inhibition of biofilm formation of S. sobrinus 6715: BHI 1% sucrose, 20 h
[2] = tested on: all strains of bacteria tested; set-up: key to the marks not given beside the values; details: 1 mM-metal
Experimental: Tooth application may involve exposure to bacteria outside the oral cavity, including the skin and digestive system. CAN, CAS and AgNO3 (1 mM-metal) were tested for their effect on in vitro planktonic growth of bacteria under the conditions listed in FIG. 9.

[3] = tested on: human telomerase immortalized gingival keratinocytes; details: 24 h incubation, DermaLife K keratinocyte culture media, MTS assay
S. mutans [4] = details: 500 μM, 6 h on 6 h-grown biofilm
Experimental: (§1) Potential mechanisms of biofilm inhibition by CeO2-NP were first explored by testing the effect of CAS and CAN on planktonic growth (FIG. 8). […] To further explore potential extracellular mechanisms of biofilm inhibition, dispersal assays were carried out on existing S. mutans and S. sobrinus biofilms grown statically for 6 h as described above (96-well plate, BHI, 1% sucrose). After 6 h, the planktonic cells were removed, the adherent biofilm rinsed (0.9% NaCl) and replaced with fresh 200 μL BHI (positive control) or BHI/500 μM CAS (test wells). All wells were allowed to incubate an additional 6 h after which the adherent biofilm was washed, stained and quantified via UV-Vis analysis (37). Biofilm dispersal was calculated similar to inhibition in Equation I via UV-Vis.

S. sobrinus = details: 500 μM, 6 h on 6 h-grown biofilm
Experimental: as §1

Q: How did the “activity in limiting planktonic growth” value (S. mutans [1]) turn out when N.N.O=S(=O)(O)O [(NH4)2SO4, ammonium sulfate, reference compound] was run?
A: The value was “not active”.

Q: How did the “effect on S. mutans biofilm formation (in words)” value (S. mutans UA159) turn out when O=[N+]([O-])[O-].[Ag+] [AgNO3, Silver Nitrate, reference compound] was run?
A: The value was “slight increase in biofilm growth”.

Q: And the “effect on biofilm growth of S. sobrinus (in words)” value (S. sobrinus 6715)?
A: Its value is “incapable of limiting biofilm growth”.

Q: How did the IC50 (S. mutans UA159; read-out: 50% inhibitory concentration (IC50) of biofilm formation) turn out when N.N.O=[N+]([O-])O.O=[N+]([O-])O.O=[N+]([O-])[O-].O=[N+]([O-])[O-].O=[N+]([O-])[O-].O=[N+]([O-])[O-].[Ce+4] [CAN, ceric ammonium nitrate] was run?
A: The IC50 was 137 µM.

Q: Which results are given for O=[N+]([O-])[O-].O=[N+]([O-])[O-].O=[N+]([O-])[O-].O=[N+]([O-])[O-].O=[N+]([O-])[O-].O=[N+]([O-])[O-].[Ce+4].[NH4+].[NH4+] [CAN, ceric ammonium nitrate]?
A: effect on planktonic growth of S. mutans (S. mutans [1]): did not inhibit; also recorded: slight growth lag; also recorded: slight lagging effect; also recorded: Non-inhibitory effect; inhibition of S. mutans biofilm growth (S. mutans UA159; 125 µM): 51% and ~40%; visible in vitro planktonic growth of bacteria [2]: ++; toxicity on gingival keratinocytes as compared to AgNO3 [3]: reduced toxicity; inhibition of biofilm formation of S. sobrinus 6715 (S. sobrinus 6715): 44%

Q: Which results are given for O=[N+]([O-])[O-].O=[N+]([O-])[O-].O=[N+]([O-])[O-].[Ce+3] [Ce(NO3)3, Cerium (III) nitrate, reference compound]?
A: effect on S. mutans biofilm formation (in words) (S. mutans UA159): slight increase in biofilm growth; also recorded: inactive; effect on biofilm growth of S. sobrinus (in words) (S. sobrinus 6715): incapable of limiting biofilm growth

Q: What does the source list for O=S(=O)([O-])[O-].[Zn+2] [ZnSO4, reference compound]?
A: effect on S. mutans biofilm formation (in words) (S. mutans UA159; 125 μM (metal ion/Ce), BHI 1% sucrose, 37° C., 5% CO2, 20 h): slight increase in biofilm growth; effect on biofilm growth of S. sobrinus (in words) (S. sobrinus 6715): incapable of limiting biofilm growth

Q: With ceric ammonium sulfate [CAS] as the compound, how does the “effect on planktonic growth of S. mutans” value (S. mutans [1]) read?
A: The value was “did not inhibit; also recorded: non-significant growth effect; also recorded: Non-inhibitory effect”.

Q: And the “biofilm dispersal, S. mutans” value (S. mutans [4])?
A: Its value is 6%.

Q: And the “biofilm dispersal, S. sobrinus” value (S. sobrinus)?
A: Its value is 8%.

Q: What about the “inhibition of S. mutans biofilm growth” value (S. mutans UA159; 125 μM) of the same compound?
A: The value was 40%.

Q: And the “visible in vitro planktonic growth of bacteria” value [2]?
A: Its value is “++”.

Q: What about the “toxicity on gingival keratinocytes as compared to AgNO3” value [3] of the same compound?
A: The value was “reduced toxicity”.

Q: What about the “inhibition of biofilm formation of S. sobrinus 6715” value (S. sobrinus 6715) of the same compound?
A: Its value is 35%.

— patent publication US10835556B2, “Hydrolyzed tetravalent metal salts and methods of biofilm inhibition” (THE BOARD OF TRUSTEES OF THE UNIVERSITY OF ILLINOIS, priority 2018, dated 2020)
